# Experimental data from the supplement of paper PMC10307832.
# Compound: CC(C)N(CCCNC(=O)Nc1ccc(C(C)(C)C)cc1)C[C@H]1O[C@@H](n2ccc3c(N)ncnc32)[C@H](O)[C@@H]1O + CS(=O)(=O)CCNCc1ccc(-c2ccc3ncnc(Nc4ccc(OCc5cccc(F)c5)c(Cl)c4)c3c2)o1 [Lapatinib] (partner 2 µM)
# Test: relative viability (nuclei count vs DMSO), 5 days (fraction); higher = more cells survive
# Details: first compound 0.08 µM
# Procedure, shortened: (§1)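 Lung cancer cell lines were pin-tool dosed in 1536-well plates on the day after seeding, with either a lone drug or a fixed anchor-drug dose plus five library-drug doses (not always all listed) in √10 steps. Nuclei were counted on 4× images after 5 days. Relative viability is the ratio of treated-well to vehicle-well nuclei counts, with each value a median of duplicate plates.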
row,Cell Line,relative viability
1,PC-14,0.287
2,NCI-H1650,0.753
3,EBC-1,0.206
4,NCI-H1703,0.956
5,NCI-H2009,1.01
6,NCI-H1993,0.857
7,NCI-H520,0.712
8,PC-3 [JPC-3],0.433
9,NCI-H647,0.961
10,NCI-H2228,0.971
11,EMC-BAC-2,0.9
12,NCI-H2087,1.03

# Same assay, conditions: first compound 0.253 µM
row,Cell Line,relative viability
1,PC-14,0.284
2,NCI-H1650,0.584
3,EBC-1,0.196
4,NCI-H1703,1.06
5,NCI-H2009,0.818
6,NCI-H1993,0.734
7,NCI-H520,0.58
8,PC-3 [JPC-3],0.478
9,EMC-BAC-2,0.916
10,NCI-H2087,1.16

# Same assay, conditions: first compound 0.8 µM
row,Cell Line,relative viability
1,PC-14,0.355
2,EBC-1,0.212
3,NCI-H1703,0.823
4,NCI-H2009,0.716
5,NCI-H1993,0.769
6,NCI-H520,0.655
7,PC-3 [JPC-3],0.419
8,NCI-H647,0.856
9,NCI-H2228,1.06
10,EMC-BAC-2,0.915
11,NCI-H2087,0.825

# Same assay, conditions: first compound 2.53 µM
row,Cell Line,relative viability
1,PC-14,0.332
2,NCI-H1650,0.762
3,EBC-1,0.183
4,NCI-H1703,1.61
5,NCI-H2009,0.888
6,NCI-H1993,0.819
7,NCI-H520,0.845
8,PC-3 [JPC-3],0.467
9,NCI-H647,0.983
10,NCI-H2228,0.949
11,EMC-BAC-2,0.929
12,NCI-H2087,1.01

# Same assay, conditions: first compound 8 µM
row,Cell Line,relative viability
1,PC-14,0.316
2,NCI-H1650,0.884
3,EBC-1,0.206
4,NCI-H1703,0.892
5,NCI-H2009,0.792
6,NCI-H1993,0.775
7,NCI-H520,0.811
8,PC-3 [JPC-3],0.462
9,NCI-H647,0.933
10,NCI-H2228,0.984
11,EMC-BAC-2,0.82
12,NCI-H2087,0.996

# Compound: CC(C)=CC[C@@H](O)C1=CC(=O)c2c(O)ccc(O)c2C1=O [Shikonin] + CS(=O)(=O)N1CCN(Cc2cc3nc(-c4cccc5[nH]ncc45)nc(N4CCOCC4)c3s2)CC1 [Pictilisib] (partner 1 µM)
# Test: as above
# Details: first compound 0.01 µM
# Procedure, shortened: as §1
row,Cell Line,relative viability
1,PC-14,0.817
2,NCI-H1650,0.682
3,EBC-1,0.331
4,NCI-H1703,0.26
5,NCI-H2009,0.817
6,PC-3 [JPC-3],0.69
7,LCLC-103H,0.503
8,NCI-H647,0.458
9,NCI-H2228,0.344
10,EMC-BAC-2,0.541
11,NCI-H2087,0.767
12,ChaGo-K-1,0.677
13,NCI-H441,0.621

# Same assay, conditions: first compound 0.1 µM
row,Cell Line,relative viability
1,NCI-H1650,0.684
2,EBC-1,0.353
3,NCI-H1703,0.238
4,NCI-H2009,1.13
5,NCI-H1993,0.84
6,NCI-H520,0.393
7,PC-3 [JPC-3],0.84
8,LCLC-103H,0.708
9,NCI-H647,0.552
10,NCI-H2228,0.438
11,EMC-BAC-2,0.536
12,NCI-H2087,1.05
13,ChaGo-K-1,1.16
14,NCI-H441,0.436

# Same assay, conditions: first compound 0.3162 µM
row,Cell Line,relative viability
1,PC-14,0.641
2,NCI-H1650,0.481
3,EBC-1,0.369
4,NCI-H1703,0.206
5,NCI-H2009,0.671
6,NCI-H1993,0.803
7,NCI-H520,0.263
8,PC-3 [JPC-3],0.759
9,LCLC-103H,0.677
10,NCI-H647,0.441
11,NCI-H2228,0.465
12,EMC-BAC-2,0.593
13,NCI-H2087,0.843
14,ChaGo-K-1,0.699
15,NCI-H441,0.485

# Same assay, conditions: first compound 1 µM
row,Cell Line,relative viability
1,PC-14,0.68
2,NCI-H1650,0.571
3,EBC-1,0.34
4,NCI-H1703,0.205
5,NCI-H2009,0.187
6,NCI-H1993,0.792
7,NCI-H520,0.348
8,PC-3 [JPC-3],0.788
9,LCLC-103H,0.676
10,NCI-H647,0.573
11,NCI-H2228,0.252
12,EMC-BAC-2,0.654
13,NCI-H2087,0.861
14,ChaGo-K-1,1.27
15,NCI-H441,0.437

# Compound: CC(C)=CC[C@@H](O)C1=CC(=O)c2c(O)ccc(O)c2C1=O [Shikonin]
# Test: relative viability (nuclei count vs DMSO), 5 days (fraction); higher = more cells survive
# Details: 0.01 µM
# Procedure, shortened: (§2)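 Five library-drug doses, separated by factors of √10, were pinned into 1536-well plates holding lung cancer cell lines after an overnight stay at 37 °C. Cells were fixed, permeabilised and Hoechst-stained in one step after 5 days without medium change, then imaged at 4×. Viability compares treated-well with vehicle-well nuclei, counted in MetaXpress, as a median across plates. Passing plates had control CV below 25% and at least one doubling.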
row,Cell Line,relative viability
1,NCI-H2342,0.941
2,NCI-H1623,0.934
3,PC-14,1.08
4,NCI-H1650,0.914
5,EBC-1,1.06
6,NCI-H1703,0.994
7,NCI-H2009,0.996
8,NCI-H1993,0.915
9,NCI-H520,0.947
10,PC-3 [JPC-3],1.1
11,LCLC-103H,0.946
12,NCI-H647,1.07
13,NCI-H2228,1.07
14,EMC-BAC-2,0.97
15,NCI-H2087,1.33
16,NCI-H1648,0.911
17,ChaGo-K-1,1.02
18,NCI-H522,0.962
19,SW 900,0.746
20,NCI-H441,1.24

# Same assay, conditions: 0.1 µM
row,Cell Line,relative viability
1,NCI-H2342,0.943
2,NCI-H1623,0.817
3,PC-14,1
4,NCI-H1650,0.992
5,EBC-1,0.997
6,NCI-H1703,1.21
7,NCI-H2009,1.11
8,NCI-H1993,1.01
9,NCI-H520,1.06
10,PC-3 [JPC-3],1.05
11,LCLC-103H,1.2
12,NCI-H647,1.08
13,NCI-H2228,0.991
14,EMC-BAC-2,0.997
15,NCI-H2087,1.02
16,NCI-H1648,0.686
17,ChaGo-K-1,0.971
18,NCI-H522,1.09
19,SW 900,0.918
20,NCI-H441,0.942

# Same assay, conditions: 0.3162 µM
row,Cell Line,relative viability
1,NCI-H2342,1.11
2,NCI-H1623,1.08
3,PC-14,1.12
4,NCI-H1650,0.782
5,EBC-1,1.05
6,NCI-H1703,0.864
7,NCI-H2009,0.981
8,NCI-H1993,0.94
9,NCI-H520,0.977
10,PC-3 [JPC-3],1.09
11,LCLC-103H,1.05
12,NCI-H647,1.08
13,NCI-H2228,1.12
14,EMC-BAC-2,1.11
15,NCI-H2087,1.12
16,NCI-H1648,1.07
17,ChaGo-K-1,1.05
18,NCI-H522,0.955
19,SW 900,0.709
20,NCI-H441,1.18

# Same assay, conditions: 1 µM
row,Cell Line,relative viability
1,NCI-H2342,0.991
2,NCI-H1623,1.07
3,PC-14,1.11
4,NCI-H1650,0.962
5,EBC-1,0.962
6,NCI-H1703,0.646
7,NCI-H2009,0.727
8,NCI-H1993,0.974
9,NCI-H520,0.931
10,PC-3 [JPC-3],1.07
11,LCLC-103H,1.08
12,NCI-H647,0.9
13,NCI-H2228,1.17
14,EMC-BAC-2,1.13
15,NCI-H2087,1.02
16,NCI-H1648,1.08
17,ChaGo-K-1,1.02
18,NCI-H522,0.956
19,SW 900,0.851
20,NCI-H441,0.975

# Compound: CC(C)N(CCCNC(=O)Nc1ccc(C(C)(C)C)cc1)C[C@H]1O[C@@H](n2ccc3c(N)ncnc32)[C@H](O)[C@@H]1O
# Test: as above
# Details: 0.08 µM
# Procedure, shortened: as §2
row,Cell Line,relative viability
1,NCI-H2342,1.01
2,NCI-H1623,0.947
3,PC-14,0.975
4,NCI-H1650,0.865
5,EBC-1,0.926
6,NCI-H1703,0.913
7,NCI-H2009,1.01
8,NCI-H1993,0.86
9,NCI-H520,0.882
10,PC-3 [JPC-3],0.969
11,LCLC-103H,0.946
12,NCI-H647,0.912
13,NCI-H2228,0.925
14,EMC-BAC-2,0.943
15,NCI-H2087,1.08
16,NCI-H1648,0.756
17,ChaGo-K-1,0.97
18,NCI-H522,0.868
19,SW 900,0.787
20,NCI-H441,1.01

# Same assay, conditions: 0.253 µM
row,Cell Line,relative viability
1,NCI-H2342,1.08
2,NCI-H1623,0.968
3,PC-14,0.981
4,NCI-H1650,0.909
5,EBC-1,0.96
6,NCI-H1703,1.04
7,NCI-H2009,0.969
8,NCI-H520,0.773
9,PC-3 [JPC-3],1.06
10,LCLC-103H,0.966
11,NCI-H647,0.831
12,NCI-H2228,1
13,EMC-BAC-2,0.928
14,NCI-H2087,0.934
15,NCI-H1648,0.935
16,ChaGo-K-1,0.889
17,NCI-H522,0.898
18,SW 900,0.705
19,NCI-H441,1.06

# Same assay, conditions: 0.8 µM
row,Cell Line,relative viability
1,NCI-H2342,0.815
2,NCI-H1623,0.934
3,PC-14,0.951
4,EBC-1,0.874
5,NCI-H1703,0.803
6,NCI-H2009,0.961
7,NCI-H1993,0.905
8,NCI-H520,0.793
9,PC-3 [JPC-3],0.883
10,LCLC-103H,0.857
11,NCI-H647,0.812
12,NCI-H2228,0.903
13,EMC-BAC-2,1.03
14,NCI-H2087,0.799
15,NCI-H1648,0.68
16,ChaGo-K-1,0.918
17,NCI-H522,0.885

# Same assay, conditions: 2.53 µM
row,Cell Line,relative viability
1,NCI-H2342,1.01
2,NCI-H1623,0.911
3,PC-14,0.967
4,NCI-H1650,0.952
5,EBC-1,0.941
6,NCI-H1703,1.03
7,NCI-H2009,0.985
8,NCI-H1993,0.919
9,NCI-H520,0.98
10,PC-3 [JPC-3],1.03
11,LCLC-103H,0.839
12,NCI-H647,0.955
13,NCI-H2228,0.949
14,EMC-BAC-2,0.905
15,NCI-H2087,1.15
16,NCI-H1648,0.784
17,ChaGo-K-1,0.96
18,NCI-H522,0.99
19,SW 900,0.886
20,NCI-H441,1.1

# Same assay, conditions: 8 µM
row,Cell Line,relative viability
1,NCI-H2342,1.05
2,NCI-H1623,1.01
3,PC-14,0.904
4,NCI-H1650,0.934
5,EBC-1,0.808
6,NCI-H1703,0.782
7,NCI-H2009,0.934
8,NCI-H1993,0.922
9,NCI-H520,0.939
10,PC-3 [JPC-3],0.934
11,LCLC-103H,1.01
12,NCI-H647,0.864
13,NCI-H2228,1.09
14,EMC-BAC-2,0.889
15,NCI-H2087,1.07
16,NCI-H1648,0.823
17,ChaGo-K-1,1.06
18,NCI-H522,0.997
19,SW 900,0.812
20,NCI-H441,0.981
